# System: gastric acid secretion
# Assay: perfused rat stomach preparation (histamine-stimulated acid secretion, perfusate pH)
# Type: in vivo, male Wistar rats
# Details: bolus intravenous injection, maximal reduction in hydrogen-ion concentration as percentage of control, histamine infusion, urethane anaesthetised rat
# Protocol: The ability of the compounds of the invention to modify the pH of gastric acid secretion was investigated as follows:
# The perfused rat stomach preparation
# The lumen of the stomach of male Wistar rats (approximately 200 g bodyweight) was perfused, via a cannula designed to reduce the dead space of the stomach, with 5% glucose solution (37^00) at the rate of 3 ml/min. The perfusate was forced over the surface of the secretory mucosa only, the antrum being excluded. The effluent then passed over a microflow type glass pH electrode via collecting funnel situated in the non-glandular forestomach.
# The secretagogue histamine was administered as a constant intravenous infusion to produce a steady rate of acid secretion. Test compounds were administered in solution as bolus intravenous injections and any effect on the pH of the perfusate noted. The perfusate pH was recorded on a potentiometric recorder and anti-secretory responses were measured in terms of the maximal reduction in hydrogen-ion concentration expressed as a percentage of the 'control' concentrations.
Compound,Inhibition (dose 2 (µmol/kg)),other results
"2-[(4-[3,5-dichlorobenzyloxy]-3-methylpyrid-2-yl)methyl sulphinyl]benzimidazole [Example 8b]",80%,
"Cc1c(OCc2ccccc2)ccnc1C[S+]([O-])c1nc2ccccc2[nH]1 (centres unmarked) [Example 1b, 2-[(4-Benzyloxy-3-methylpyrid-2-yl)methylsulphinyl]-benzimidazole]",,Inhibition (dose 0.5 µmol/kg): 82%
"COc1ccc(COc2ccnc(C[S+]([O-])c3nc4ccccc4[nH]3)c2C)cc1 (centres unmarked) [Example 7b, 2-[(4-[4-methoxybenzyloxy]-3-methylpyrid-2-yl)methylsulphinyl]benzimidazole]",86%,
"Cc1c(OCc2ccc(F)cc2)ccnc1C[S+]([O-])c1nc2ccccc2[nH]1 (centres unmarked) [Example 10b, 2-[(4-[4-Fluorobenzyloxy]-3-methylpyrid-2-yl)methylsulphinyl]benzimidazole]",,Inhibition (dose 1 (µmol/kg)): 80%
"[O-][S+](Cc1cc(OCCc2ccccc2)ccn1)c1nc2ccccc2[nH]1 (centres unmarked) [Example 18b, 2-[(4'-Phenethyloxypyrid-2-yl)methylsulphinyl]benzimidazole]",100%,
"Cc1c(Oc2ccccc2)ccnc1C[S+]([O-])c1nc2ccccc2[nH]1 (centres unmarked) [Example 20b, 2-[(3-Methyl-4-phenoxypyrid-2-yl)methylsulphinyl]-benzimidazole]",72%,
"[O-][S+](Cc1cc(OCc2ccc(F)cc2)ccn1)c1nc2ccccc2[nH]1 (centres unmarked) [Example 21b, 2-[(4-(4-Fluorobenzyloxy)pyrid-2-yl)methylsuphinyl]-benzimidazole]",100%,
Cc1cnc(C[S+]([O-])c2nc3ccccc3[nH]2)cc1OCc1ccccc1 (centres unmarked) [Example 24b],,Inhibition (dose 2.5 (µmol/kg)): 91%

# Source: patent publication EP0167943A2, “Benzimidazole derivatives, process for their preparation, and their use as pharmaceuticals” (BEECHAM GROUP PLC, priority 1984, dated 1986)
